This passage reports Kd, IC50 and EC50 results from patent US11242351B2, “Tricyclic inhibitors of the BCL6 BTB domain protein-protein interaction and uses thereof” (priority 2017, dated 2022).

Read-outs that look alike come from different tables or passages of the source.

For test [1], the target named is BCL6 BTB domain (biotin-thrombin-BCL6 amino acids 1-129) (Homo sapiens (Human), UniProt P41182). Kind of test: Surface Plasmon Resonance (SPR) assay. The conditions noted are these: Biacore T200, single cycle kinetic analysis. Type of test: binding. The method, then: Surface Plasmon Resonance (SPR) Assay
SPR studies were performed using a Biacore™ T200 instrument (GE Health Sciences Inc.). […] The Biacore flow rate was set at 100 μl/min. […] Curve fitting and KD calculations were performed with the Biacore T200 Evaluation software (GE Health Sciences Inc).

The subject of test [2] is BCL6 reporter construct in SuDHL4-3×BCL6-TK-Luc cells. The test is described as follows: Cell-based luciferase assay (BCL6 reporter). The conditions noted are these: 48 h, read-out: Luc IC50. In a few lines: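 SuDHL4 cells stably carrying a 3×BCL6-site TK-promoter firefly luciferase reporter, 15,000 cells/well, dosed over 10 concentrations (top 10 μM) and cultured two days at 37° C, 5% CO2. Luciferase luminescence read after room-temperature equilibration with neolite reagent.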

The test system of test [3] is Karpas422 cells. Kind of test: Tumor cell growth inhibition assay. Format: cell-based. The conditions noted are these: Homo sapiens, KARPAS-422, 144 h, read-out: GI Karpas EC50. The essentials: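 Karpas422 cells were dosed over a 10-point concentration range (top 5 μM) and grown 6 days at 37 °C, 5% CO2, in Alpha-MEM with 10% FBS. Viability was read as ATPlite luminescence.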

[4] abbreviates: SuDHL4-3×BCL6-TK-Luc cells, two days.
[5] abbreviates: Karpas422 cells, six days, ATPlite.

Consider `C[C@H]1COCCN1c1cc(NC(=O)Cn2cc(-c3cc(Cl)c(O)c(C(N)=O)c3)c3c(=O)n4c(nc32)CCC4)c(Cl)c(F)n1` [I-62, (S)-3-chloro-5-(1-(2-((3-chloro-2-fluoro-6-(3-methylmorpho-lino)pyridin-4-yl)amino)-2-oxoethyl)-4-oxo-4,6,7,8-tetra-hydro-1H-dipyrrolo [1,2-a:2′,3′-d]pyrimi-din-3-yl)-2-hydroxybenzamide], for which, in test [1], the dissociation constant (Kd) stood at 0.00717 µM. In test [2] (setting [4]), the 50% inhibitory concentration (IC50) worked out at 0.0785 µM. In addition, the EC50 in test [3] (setting [5]) turned out to be 0.0312 µM.

Consider `CC1Cc2nc3c(c(-c4cc(C(N)=O)c(O)c(F)c4F)cn3CC(=O)Nc3cc(N4CCN(C)C[C@@H]4C)nc(F)c3Cl)c(=O)n2C1` (stereo partly drawn) [I-63, 5-(1-(2-((3-chloro-6-((S)-2,4-dimethyl-piperazin-1-yl)-2-fluoropyridin-4-yl)amino)-2-oxoethyl)-7-methyl-4-oxo-4,6,7,8-tetrahydro-1H-dipyrrolo[1,2-a:2′,3′-d]pyrimidin-3-yl)-3,4-difluoro-2-hydroxy-benzamide], for which the equilibrium dissociation constant (Kd) in test [1] turned out to be 0.0102 µM. For the same compound, the IC50 in test [2] (setting [4]) worked out at 0.11 µM. Besides, the EC50 in test [3] (setting [5]) came to 0.12 µM.

With `CC1Cc2nc3c(c(-c4cc(C(N)=O)c(O)c(F)c4F)cn3CC(=O)Nc3cc(N4CCOC[C@@H]4C)nc(F)c3Cl)c(=O)n2C1` (stereo partly drawn) [I-64, 5-(1-(2-((3-chloro-2-fluoro-6-((S)-3-methylmorpholino)pyridin-4-yl)amino)-2-oxoethyl)-7-methyl-4-oxo-4,6,7,8-tetrahydro-1H-dipyrrolo [1,2-a:2′,3′-d]pyrimidin-3-yl)-3,4-difluoro-2-hydroxybenzamide], in test [1], binding was put at a Kd of 0.0274 µM. Also, the half-maximal inhibitory concentration (IC50) in test [2] (setting [4]) came out at 0.38 µM. The EC50 in test [3] (setting [5]) was determined as 0.174 µM.

Consider `CC1Cc2nc3c(c(-c4cc(Cl)c(O)c(C(N)=O)c4)cn3CC(=O)Nc3cc(N4CCN(C)C[C@@H]4C)nc(F)c3Cl)c(=O)n2C1` (stereo partly drawn) [I-65, 3-chloro-5-(1-(2-((3-chloro-6-((S)-2,4-dimethylpiperazin-1-yl)-2-fluoropyridin-4-yl)amino)-2-oxo-ethyl)-7-methyl-4-oxo-4,6,7,8-tetra-hydro-1H-dipyrrolo [1,2-a:2′,3′-d]pyrimi-din-3-yl)-2-hydroxy-benzamide], for which the equilibrium dissociation constant (Kd) in test [1] was found to be 0.00628 µM. For the same compound, the IC50 in test [2] (setting [4]) worked out at 0.0468 µM. Moreover, in test [3] (setting [5]), the EC50 amounted to 0.0421 µM.

The compound `CC1Cc2nc3c(c(-c4cc(Cl)c(O)c(C(N)=O)c4)cn3CC(=O)Nc3cc(N4CCOC[C@@H]4C)nc(F)c3Cl)c(=O)n2C1` (stereo partly drawn) [I-66, 3-chloro-5-(1-(2-((3-chloro-2-fluoro-6-((S)-3-methylmor-pholino)pyridin-4-yl)amino)-2-oxo-ethyl)-7-methyl-4-oxo-4,6,7,8-tetra-hydro-1H-dipyrrolo [1,2-a:2′,3′-d]pyrimi-din-3-yl)-2-hydroxy-benzamide] registered a Kd in test [1] of 0.0159 µM. The IC50 in test [2] (setting [4]) amounted to 0.186 µM. Besides, in test [3] (setting [5]), the concentration for a half-maximal effect (EC50) stood at 0.0742 µM.

`C[C@H]1CN(C)CCN1c1cc(NC(=O)Cn2cc(-c3cc(C#N)c(O)c4c3OCO4)c3c(=O)n4c(nc32)CCC4)c(Cl)c(F)n1` [I-67, (S)-N-(3-chloro-6-(2,4-dimethyl-piperazin-1-yl)-2-fluoropyridin-4-yl)-2-(3-(6-cyano-7-hydroxybenzo[d][1,3]dioxol-4-yl)-4-oxo-4,6,7,8-tetrahydro-1H-dipyrrolo[1,2-a:2′,3′-d]pyrimidin-1-yl) acetamide] had a Kd in test [1] of 0.00672 µM. Moreover, the 50% inhibitory concentration (IC50) in test [2] came to 0.541 µM. In test [3], the EC50 is 0.874 µM.

With `COc1c(-c2cn(CC(=O)Nc3cc(N4CCN(C)C[C@@H]4C)nc(F)c3Cl)c3nc4n(c(=O)c23)CCC4)cc(C(N)=O)c(O)c1OC` [I-68, (S)-5-(1-(2-((3-chloro-6-(2,4-dimethylpiperazin-1-yl)-2-fluoro-pyridin-4-yl)amino)-2-oxoethyl)-4-oxo-4,6,7,8-tetrahydro-1H-dipyrrolo[1,2-a:2′,3′-d]pyrimidin-3-yl)-2-hydroxy-3,4-dimethoxy-benzamide], binding in test [1] was put at a Kd of 0.0313 µM. The IC50 in test [2] was 3.42 µM. In test [3], the 50% effective concentration (EC50) amounted to 1.62 µM.

`COc1c(-c2cn(CC(=O)Nc3cc(N4CCOC[C@@H]4C)ncc3Cl)c3nc4n(c(=O)c23)CCC4)cc(C(N)=O)c(O)c1OC` [I-69, (S)-5-(1-(2-((5-chloro-2-(3-methylmorpholino)pyridin-4-yl)amino)-2-oxoethyl)-4-oxo-4,6,7,8-tetrahydro-1H-dipyrrolo[1,2-a:2′,3′-d]pyrimidin-3-yl)-2-hydroxy-3,4-dimethoxy-benzamide] showed a Kd in test [1] of 0.294 µM. Besides, the IC50 in test [2] (setting [4]) worked out at 7.97 µM. For the same compound, the concentration giving a half-maximal response (EC50) in test [3] (setting [5]) came to 10 µM.

`COc1c(-c2cn(CC(=O)Nc3cc(N4CCOC[C@@H]4C)nc(F)c3Cl)c3nc4n(c(=O)c23)CCC4)cc(C(N)=O)c(O)c1OC` [I-70, (S)-5-(1-(2-((3-chloro-2-fluoro-6-(3-methyl-morpholino)pyridin-4-yl)amino)-2-oxoethyl)-4-oxo-4,6,7,8-tetra-hydro-1H-dipyrrolo [1,2-a:2′,3′-d]pyrimi-din-3-yl)-2-hydroxy-3,4-dimethoxy-benzamide] returned a Kd in test [1] of 0.255 µM. In addition, the IC50 in test [2] amounted to 3.82 µM. Moreover, the half-maximal effective concentration (EC50) in test [3] was 4.07 µM.

Compound `CCOCCN1CCN(c2cc(NC(=O)Cn3cc(-c4cc(C(N)=O)c(O)c(OC)c4OC)c4c(=O)n5c(nc43)CCC5)c(Cl)c(F)n2)[C@@H](C)C1` [I-71, (S)-5-(1-(2-((3-chloro-6-(4-(2-ethoxyethyl)-2-methylpiperazin-1-yl)-2-fluoropyridin-4-yl)amino)-2-oxo-ethyl)-4-oxo-4,6,7,8-tetrahydro-1H-dipyrrolo [1,2-a:2′,3′-d]pyrimidin-3-yl)-2-hydroxy-3,4-dimethoxybenzamide] registered an equilibrium dissociation constant (Kd) in test [1] of 0.181 µM. In addition, in test [2] (setting [4]), the IC50 stood at 1.64 µM. In addition, in test [3] (setting [5]), the EC50 is 1.37 µM.

In turn, `COc1c(-c2cn(CC(=O)Nc3cc(N4CCN(C5COC5)C[C@@H]4C)nc(F)c3Cl)c3nc4n(c(=O)c23)CCC4)cc(C(N)=O)c(O)c1OC` [I-72, (S)-5-(1-(2-((3-chloro-2-fluoro-6-(2-methyl-4-(oxetan-3-yl)pipera-zin-1-yl)pyridin-4-yl)amino)-2-oxoethyl)-4-oxo-4,6,7,8-tetra-hydro-1H-dipyrrolo [1,2-a:2′,3′-d]pyrimi-din-3-yl)-2-hydroxy-3,4-dimethoxy-benzamide] yielded an equilibrium dissociation constant (Kd) in test [1] of 0.0851 µM. Besides, in test [2], the IC50 was 1.56 µM. In addition, the EC50 in test [3] was 0.429 µM.

Compound `C[C@H]1CN(C)C[C@H](C)N1c1cc(NC(=O)Cn2cc(-c3cc(C(N)=O)c(O)c(F)c3F)c3c(=O)n4c(nc32)CCC4)c(Cl)c(F)n1` [I-73, 5-(1-(2-((3-chloro-2-fluoro-6-((2S,6S)-2,4,6-trimethyl-piperazin-1-yl)pyridin-4-yl)amino)-2-oxo-ethyl)-4-oxo-4,6,7,8-tetrahydro-1H-dipyrrolo [1,2-a:2′,3′-d]pyrimidin-3-yl)-3,4-difluoro-2-hydroxybenzamide] showed a Kd in test [1] of 0.0586 µM. Further, the half-inhibitory concentration (IC50) in test [2] came to 1.05 µM. Further, the half-maximal effective concentration (EC50) in test [3] was 0.648 µM.

In the case of `NC(=O)c1cc(-c2cn(CC(=O)Nc3cc(N4CCCC4)nc(F)c3Cl)c3nc4n(c(=O)c23)CCC4)cc(Cl)c1O` [I-74, 3-chloro-5-(1-(2-((3-chloro-2-fluoro-6-(pyrrolidin-1-yl)pyridin-4-yl)amino)-2-oxo-ethyl)-4-oxo-4,6,7,8-tetrahydro-1H-dipyrrolo [1,2-a:2′,3′-d]pyrimidin-3-yl)-2-hydroxy-benzamide], the dissociation constant (Kd) in test [1] was 0.0148 µM. Also, the IC50 in test [2] (setting [4]) worked out at 0.148 µM. The EC50 in test [3] (setting [5]) worked out at 0.21 µM.

`COCCN1CCN(c2cc(NC(=O)Cn3cc(-c4cc(Cl)c(O)c(C(N)=O)c4)c4c(=O)n5c(nc43)CCC5)c(Cl)c(F)n2)[C@@H](C)C1` [I-75, (S)-3-chloro-5-(1-(2-((3-chloro-2-fluoro-6-(4-(2-methoxyethyl)-2-methylpiperazin-1-yl)pyridin-4-yl)amino)-2-oxoethyl)-4-oxo-4,6,7,8-tetra-hydro-1H-dipyrrolo [1,2-a:2′,3′-d]pyrimi-din-3-yl)-2-hydroxy-benzamide]: the Kd in test [1] turned out to be 0.0037 µM. Also, in test [2] (setting [4]), the half-inhibitory concentration (IC50) came out at 0.0367 µM. The concentration for a half-maximal effect (EC50) in test [3] (setting [5]) came to 0.0489 µM.

`NC(=O)c1cc(-c2cn(CC(=O)Nc3cc(N4CCCC4)nc(F)c3Cl)c3nc4n(c(=O)c23)CCC4)cc(F)c1O` [I-76, 5-(1-(2-((3-chloro-2-fluoro-6-(pyrrolidin-1-yl)pyridin-4-yl)amino)-2-oxoethyl)-4-oxo-4,6,7,8-tetrahydro-1H-dipyrrolo[1,2-a:2′,3′-d]pyrimidin-3-yl)-3-fluoro-2-hydroxy-benzamide] had an equilibrium dissociation constant (Kd) in test [1] of 0.00302 µM. In addition, the IC50 in test [2] (setting [4]) stood at 0.0851 µM. The concentration for a half-maximal effect (EC50) in test [3] (setting [5]) is 0.0928 µM.

In turn, `COCCN1CCN(c2cc(NC(=O)Cn3cc(-c4cc(F)c(O)c(C(N)=O)c4)c4c(=O)n5c(nc43)CCC5)c(Cl)c(F)n2)[C@@H](C)C1` [I-77, (S)-5-(1-(2-((3-chloro-2-fluoro-6-(4-(2-methoxyethyl)-2-methylpiperazin-1-yl)pyridin-4-yl)amino)-2-oxoethyl)-4-oxo-4,6,7,8-tetrahydro-1H-dipyrrolo[1,2-a:2′,3′-d]pyrimidin-3-yl)-3-fluoro-2-hydroxy-benzamide] gave a Kd in test [1] of 0.00142 µM. Moreover, the IC50 in test [2] (setting [4]) came to 0.0274 µM. In addition, the EC50 in test [3] (setting [5]) turned out to be 0.0207 µM.

A word on the Kd: it is a measure of binding affinity in units of concentration. Read a low Kd as a tighter complex. One may read the IC50 as the point on the concentration scale where inhibition reaches its midpoint. In general, EC50 refers to the concentration giving half of the maximal effect.
